22 molecules from patent publication US8440708B2, “Triazole-substituted arylamides as P2X3 and P2X2/3 antagonists” (Roche Palo Alto LLC, priority 2007, dated 2013) can be followed below.

The target of one experiment is T1, human P2X2/3 receptor (Homo sapiens, UniProt P56373+Q9UBL9).
T1 construct: expressed in transfected cells; host or cells: CHO-K1
T1 sequence (Q9UBL9 1-471): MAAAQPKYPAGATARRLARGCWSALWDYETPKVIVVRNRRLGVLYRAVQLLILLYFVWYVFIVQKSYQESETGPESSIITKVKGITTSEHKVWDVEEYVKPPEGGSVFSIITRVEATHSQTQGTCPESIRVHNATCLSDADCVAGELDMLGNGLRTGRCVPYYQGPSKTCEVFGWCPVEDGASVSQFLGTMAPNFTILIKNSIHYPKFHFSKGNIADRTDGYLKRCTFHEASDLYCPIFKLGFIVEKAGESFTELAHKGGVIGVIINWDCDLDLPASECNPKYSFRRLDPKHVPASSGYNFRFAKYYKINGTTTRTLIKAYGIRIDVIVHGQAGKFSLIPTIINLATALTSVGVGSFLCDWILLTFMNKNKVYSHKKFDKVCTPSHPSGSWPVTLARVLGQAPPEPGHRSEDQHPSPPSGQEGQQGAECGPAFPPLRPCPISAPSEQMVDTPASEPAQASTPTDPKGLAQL
T1 sequence (P56373 1-397): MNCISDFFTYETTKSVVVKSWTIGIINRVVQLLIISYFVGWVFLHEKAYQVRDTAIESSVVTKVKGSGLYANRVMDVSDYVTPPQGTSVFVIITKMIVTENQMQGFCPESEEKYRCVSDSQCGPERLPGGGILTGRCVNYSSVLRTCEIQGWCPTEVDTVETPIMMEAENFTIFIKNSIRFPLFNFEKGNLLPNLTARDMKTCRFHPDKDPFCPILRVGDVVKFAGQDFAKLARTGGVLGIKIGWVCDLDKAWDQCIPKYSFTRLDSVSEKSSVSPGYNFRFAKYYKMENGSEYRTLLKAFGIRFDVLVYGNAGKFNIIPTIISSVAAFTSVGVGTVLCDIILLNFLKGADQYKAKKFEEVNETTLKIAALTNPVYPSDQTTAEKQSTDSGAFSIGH
Put plainly: P2X3/P2X2/3 FLIPR (Fluorometric Imaging Plate Reader) Assay, P2X2/3. It counts as cell-based. The conditions noted are these: CHO-K1 cells transfected with human P2X2/3; agonist α,β-meATP 5 μM; Table 1; read-out: P2X2/3 pKi (converted). The gist of the method: (§1)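 Cells are dye-loaded with Fluo-3 AM, then exposed to test compound for 20 minutes at room temperature. Next, α,β-meATP is added (final 1 μM for rat P2X3, 5 μM for human P2X2/3 in CHO-K1), and the peak calcium fluorescence yields inhibition curves by nonlinear regression.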

A further experiment addresses T2, rat P2X3 receptor (Rattus norvegicus, UniProt P49654).
T2 construct: expressed in transfected cells; host or cells: CHO-K1
T2 sequence (P49654 1-397): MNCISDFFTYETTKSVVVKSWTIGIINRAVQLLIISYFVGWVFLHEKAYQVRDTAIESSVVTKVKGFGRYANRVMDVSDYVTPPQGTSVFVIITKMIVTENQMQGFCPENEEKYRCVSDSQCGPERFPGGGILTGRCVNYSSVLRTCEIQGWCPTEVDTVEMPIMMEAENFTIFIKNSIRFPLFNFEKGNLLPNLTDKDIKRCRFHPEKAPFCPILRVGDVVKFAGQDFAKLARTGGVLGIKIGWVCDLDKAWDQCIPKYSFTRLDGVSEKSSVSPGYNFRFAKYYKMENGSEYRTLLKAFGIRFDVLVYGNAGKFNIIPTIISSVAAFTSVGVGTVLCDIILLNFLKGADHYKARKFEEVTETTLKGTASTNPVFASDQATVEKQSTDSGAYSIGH
The experiment is described as follows: P2X3/P2X2/3 FLIPR (Fluorometric Imaging Plate Reader) Assay, P2X3. It counts as cell-based. Conditions: CHO-K1 cells transfected with rat P2X3; agonist α,β-meATP 1 μM; Table 1; read-out: P2X3 pKi (converted). The gist of the method:
as §1

Turning to `COC(C)c1ncnn1-c1cc(C(=O)NC(C)c2cnccn2)cc(-c2ccc(C)cc2)c1` (centres unmarked) [Compound 48, 5-[5-(1-Methoxy-ethyl)-[1,2,4]triazol-1-yl]-4′-methyl-biphenyl-3-carboxylic acid (1-pyrazin-2-yl-ethyl)-amide], the Ki is 43.7 nM on human P2X2/3 receptor and 3.89 nM on rat P2X3 receptor.
The matching figures for `Cc1ccc(-c2cc(C(=O)NC(C)c3cnccn3)cc(-n3ncnc3C3CCC3)c2)nc1` (centres unmarked) [Compound 87, 3-(5-Cyclobutyl-[1,2,4]triazol-1-yl)-5-(5-methyl-pyridin-2-yl)-N-(1-pyrazin-2-yl-ethyl)-benzamide]: 35.5 nM and 2.63 nM.
The corresponding values for `CCc1ncnn1-c1cc(C(=O)NC2CC2)cc(-c2ccc(Cl)cn2)c1` [Compound 108, 3-(5-Chloro-pyridin-2-yl)-N-cyclopropyl-5-(5-ethyl-[1,2,4]triazol-1-yl)-benzamide] are 4270 nM and 97.7 nM.
The corresponding values for `CCn1nncc1-c1cc(C(=O)N[C@H](C)COC)cc(-c2ccc(C)cc2)c1` [Compound 37, 5-(3-Ethyl-3H-[1,2,3]triazol-4-yl)-4′-methyl-biphenyl-3-carboxylic acid ((R)-2-methoxy-1-methyl-ethyl)-amide] are 6760 nM and 380 nM.
With `Cc1ccc(-c2cc(C(=O)NCc3cnc(C)cn3)cc(-n3ncnc3C(C)C)c2)c(F)c1` [Compound 135, 2′-Fluoro-5-(5-isopropyl-[1,2,4]triazol-1-yl)-4′-methyl-biphenyl-3-carboxylic acid (5-methyl-pyrazin-2-ylmethyl)-amide], the Ki on human P2X2/3 receptor is 25.7 nM; at rat P2X3 receptor, 4.79 nM.
As to `Cc1ccc(-c2cc(C(=O)N[C@@H](C)CO)cc(-n3nc(C)nc3C(C)C)c2)cc1` [Compound 29, 5-(5-Isopropyl-3-methyl-[1,2,4]triazol-1-yl)-4′-methyl-biphenyl-3-carboxylic acid ((S)-2-hydroxy-1-methyl-ethyl)-amide], the Ki is 3630 nM on human P2X2/3 receptor and 46.8 nM at rat P2X3 receptor.
In the case of `Cc1ccc(-c2cc(C(=O)NCc3cnc(C)cn3)cc(-n3ncnc3C(C)C)c2)cc1` [Compound 136, 5-(5-Isopropyl-[1,2,4]triazol-1-yl)-4′-methyl-biphenyl-3-carboxylic acid (5-methyl-pyrazin-2-ylmethyl)-amide], the Ki on human P2X2/3 receptor is 20.9 nM; on rat P2X3 receptor, 5.37 nM.
The corresponding values for `Cc1ccc(-c2cc(-n3ncnc3C(F)(F)F)cc(C(=O)NCc3cnc(C)cn3)c2F)nc1` [Compound 169, 2-Fluoro-N-(5-methyl-pyrazin-2-ylmethyl)-3-(5-methyl-pyridin-2-yl)-5-(5-trifluoromethyl-[1,2,4]triazol-1-yl)-benzamide] are 95.5 nM and 4.27 nM.
The matching figures for `Cc1ccc(-c2cc(C(=O)NC(C)c3cnccn3)cc(-n3ncnc3C(F)(F)F)c2)cc1` (centres unmarked) [Compound 66, 4′-Methyl-5-(5-trifluoromethyl-[1,2,4]triazol-1-yl)-biphenyl-3-carboxylic acid (1-pyrazin-2-yl-ethyl)-amide]: 40.7 nM and 3.72 nM.
The matching figures for `Cc1ccc(-c2cc(C(=O)N[C@@H](C)CO)cc(-n3ncnc3C(C)(F)F)c2)nc1` [Compound 71, 3-[5-(1,1-Difluoro-ethyl)-[1,2,4]triazol-1-yl]-N-((S)-2-hydroxy-1-methyl-ethyl)-5-(5-methyl-pyridin-2-yl)-benzamide]: 2290 nM and 2.82 nM.
On to `CC(C)c1ncnn1-c1cc(C(=O)N[C@@H](C)CO)cc(-c2ccc(Cl)cn2)c1` [Compound 122, 3-(5-Chloro-pyridin-2-yl)-N-((S)-2-hydroxy-1-methyl-ethyl)-5-(5-isopropyl-[1,2,4]triazol-1-yl)-benzamide], for which the Ki was 1290 nM on human P2X2/3 receptor and 19.1 nM on rat P2X3 receptor.
`Cc1ccc(-c2cc(-n3ncnc3C(C)C)cc(C(=O)N[C@@H](C)CO)c2F)nc1` [Compound 174, 2-Fluoro-N-((S)-2-hydroxy-1-methyl-ethyl)-5-(5-isopropyl-[1,2,4]triazol-1-yl)-3-(5-methyl-pyridin-2-yl)-benzamide]: the figures for the Ki on human P2X2/3 receptor and at rat P2X3 receptor were 1620 nM and 6.46 nM, respectively.
The matching figures for `COCC(C)NC(=O)c1cc(-c2ccc(C)cc2)cc(-n2nncc2C)c1` (centres unmarked) [Compound 5, 4′-Methyl-5-(5-methyl-[1,2,3]triazol-1-yl)-biphenyl-3-carboxylic acid (2-methoxy-1-methyl-ethyl)-amide]: 2820 nM and 603 nM.
With `CC(NC(=O)c1cc(-c2ccc(Cl)cc2)cc(-n2ncnc2N(C)C)c1)c1cnccn1` (centres unmarked) [Compound 44, 4′-Chloro-5-(5-dimethylamino-[1,2,4]triazol-1-yl)-biphenyl-3-carboxylic acid (1-pyrazin-2-yl-ethyl)-amide], the Ki at human P2X2/3 receptor is 759 nM; at rat P2X3 receptor, 81.3 nM.
The corresponding values for `COCC(C)NC(=O)c1cc(-c2ccc(C)cc2)cc(-n2nncc2C(C)C)c1` (centres unmarked) [Compound 9, 5-(5-Isopropyl-[1,2,3]triazol-1-yl)-4′-methyl-biphenyl-3-carboxylic acid (2-methoxy-1-methyl-ethyl)-amide] are 501 nM and 18.6 nM.
As to `COC(C)c1ncnn1-c1cc(C(=O)NCc2cnc(C)cn2)cc(-c2ccc(C)cc2)c1` (centres unmarked) [Compound 134, 5-[5-(1-Methoxy-ethyl)-[1,2,4]triazol-1-yl]-4′-methyl-biphenyl-3-carboxylic acid (5-methyl-pyrazin-2-ylmethyl)-amide], the Ki is 38 nM on human P2X2/3 receptor and 6.61 nM at rat P2X3 receptor.
On to `Cc1cnc(CNC(=O)c2cc(-c3ccc(Cl)cn3)cc(-n3ncnc3C(F)(F)F)c2)cn1` [Compound 80, 3-(5-Chloro-pyridin-2-yl)-N-(5-methyl-pyrazin-2-ylmethyl)-5-(5-trifluoromethyl-[1,2,4]triazol-1-yl)-benzamide], for which the Ki on human P2X2/3 receptor is 275 nM; at rat P2X3 receptor, 8.91 nM.
The matching figures for `CCc1ncnn1-c1cc(C(=O)NCc2cnc(C)cn2)cc(-c2ccc(Cl)cn2)c1` [Compound 124, 3-(5-Chloro-pyridin-2-yl)-5-(5-ethyl-[1,2,4]triazol-1-yl)-N-(5-methyl-pyrazin-2-ylmethyl)-benzamide]: 1150 nM and 13.5 nM.
The matching figures for `Cc1ccc(-c2cc(C(=O)N[C@@H](C)CO)cc(-n3ncnc3C(C)N(C)C)c2)cc1` (stereo partly drawn) [Compound 105, 5-[5-(1-Dimethylamino-ethyl)-[1,2,4]triazol-1-yl]-4′-methyl-biphenyl-3-carboxylic acid ((S)-2-hydroxy-1-methyl-ethyl)-amide]: 646 nM and 5.25 nM.
With `Cc1ccc(-c2cc(C(=O)N[C@@H](C)CO)cc(-n3ncnc3C)c2)nc1` [Compound 102, N-((S)-2-Hydroxy-1-methyl-ethyl)-3-(5-methyl-pyridin-2-yl)-5-(5-methyl-[1,2,4]triazol-1-yl)-benzamide], the figures for the Ki at human P2X2/3 receptor and on rat P2X3 receptor were 10000 nM and 263 nM, respectively.
The matching figures for `Cc1ccc(-c2cc(C(=O)NC(C)c3cnccn3)cc(-n3nc(C)nc3C(C)C)c2)cc1` (centres unmarked) [Compound 30, 5-(5-Isopropyl-3-methyl-[1,2,4]triazol-1-yl)-4′-methyl-biphenyl-3-carboxylic acid (1-pyrazin-2-yl-ethyl)-amide]: 135 nM and 4.57 nM.
For `CCOCCc1ncnn1-c1cc(C(=O)N[C@@H](C)CO)cc(-c2ccc(C)cn2)c1` [Compound 150, 3-[5-(2-Ethoxy-ethyl)-[1,2,4]triazol-1-yl]-N-((S)-2-hydroxy-1-methyl-ethyl)-5-(5-methyl-pyridin-2-yl)-benzamide], the Ki is 10000 nM on human P2X2/3 receptor and 158 nM on rat P2X3 receptor.
